From US20200017495A1, “NOVEL HETEROCYCLIC COMPOUNDS AND THEIR USE IN PREVENTING OR TREATING BACTERIAL INFECTIONS” (priority 2017, published 2020)

What was measured:
Assay type in all cases: cell-based
[1] = tested on: Enterobacter aerogenes (EAE) isolates; experiment: MIC of compounds alone and combined with antibacterials, broth microdilution (CLSI); conditions: genotype TEM-24
How it was run: (§1)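 First, log-phase suspensions are brought to 5.10^5 CFU/mL final in ca-MHB; plates then incubate 16-20 h at 35° C in air. Growth is judged visually, giving the compound MIC alone and the antibacterial MIC at each compound concentration.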

[2] = tested on: Morganella morganii (MMO) isolates; experiment: as above
How it was run: as §1

[3] = tested on: Proteus mirabilis (PMI) isolates; experiment: microbe, parasite or virus in culture
How it was run: as §1

C=CC1=C(C(=O)O)N2C(=O)[C@@H](NC(=O)/C(=N\OCC(=O)O)c3csc(N)n3)[C@H]2SC1 [FIX, Cefixime]
32 µg/mL: MIC ATB in combination ([2]; MMO 200321, CLA @ 4 μg/mL) | MIC ATB in combination ([2]; MMO UFR144, CLA @ 4 μg/mL) | MIC ATB in combination ([2]; MMO UFR241, CLA @ 4 μg/mL) | MIC ATB in combination ([2]; MMO UFR243, CLA @ 4 μg/mL) | MIC ATB in combination ([2]; MMO UFR247, CLA @ 4 μg/mL) | MIC ([2]; strain MMO UFR245, genotype DHA-1) | MIC ([2]; strain MMO UFR246, genotype DHA-1)
1 µg/mL: MIC ATB in combination ([2]; MMO 200321, AF2 @ 8 μg/mL) | MIC ATB in combination ([2]; MMO 200321, AF3 @ 8 μg/mL) | MIC ATB in combination ([2]; MMO UFR144, AF2 @ 8 μg/mL) | MIC ATB in combination ([2]; MMO UFR242, AF3 @ 8 μg/mL) | MIC ATB in combination ([2]; MMO UFR245, AF2 @ 8 μg/mL) | MIC ATB in combination ([2]; MMO UFR246, AF2 @ 8 μg/mL) | MIC ([2]; strain MMO UFR240, genotype CTX-M-9) | MIC ([3]; strain PMI UFR122, genotype TEM-1, CTX-M-15)
64 µg/mL: MIC ATB in combination ([2]; MMO UFR242, CLA @ 4 μg/mL) | MIC ATB in combination ([2]; MMO UFR245, CLA @ 4 μg/mL) | MIC ATB in combination ([2]; MMO UFR246, CLA @ 4 μg/mL)
8 µg/mL: MIC ATB in combination ([2]; MMO UFR240, CLA @ 4 μg/mL) | MIC ATB in combination ([2]; MMO UFR244, CLA @ 4 μg/mL) | MIC ([2]; strain MMO UFR243, genotype DHA-1) | MIC ATB in combination ([3]; PMI UFR130, CLA @ 4 μg/mL) | MIC ([3]; strain PMI UFR82, genotype CMY-2) | MIC ([3]; strain PMI UFR130, genotype CMY-2)
4 µg/mL: MIC ([2]; strain MMO UFR244, genotype DHA-1) | MIC ATB in combination ([3]; PMI UFR82, CLA @ 4 μg/mL)
>128 µg/mL: MIC ([1]; strain EAE UFR202) | MIC ([1]; strain EAE UFR213) | MIC ([2]; strain MMO 200321, genotype TEM-1, CTX-M-15, OXA-1) | MIC ([2]; strain MMO UFR144, genotype TEM-1, CTX-M-15) | MIC ATB in combination ([2]; strain MMO UFR145, with AF2 @ 8 μg/mL) | MIC ATB in combination ([2]; strain MMO UFR145, with AF3 @ 8 μg/mL) | MIC ATB in combination ([2]; strain MMO UFR145, with CLA @ 4 μg/mL) | MIC ([2]; strain MMO UFR241, genotype TEM-1, CTX-M-15) | MIC ([3]; strain PMI UFR124, genotype CTX-M-2) | MIC ([3]; strain PMI UFR127, compound alone) | MIC ([3]; strain PMI UFR127, genotype VEB-1) | MIC ([3]; strain PMI UFR128, genotype VEB-1, OXA-10) | MIC ([3]; strain PMI UFR129, genotype TEM-1, VEB-6) | MIC ([3]; strain PMI UFR131, genotype CMY-16, OXA-1, OXA-10, NDM-1, ArmA) | MIC ATB in combination ([3]; strain PMI UFR131, with CLA @ 4 μg/mL) | MIC ([3]; strain PMI UFR132, genotype VEB-6, DHA-1, NDM-1, AphA6, AacA4) | MIC ATB in combination ([3]; strain PMI UFR132, with CLA @ 4 μg/mL) | MIC ([3]; strain PMI UFR237, genotype VEB-6)
16 µg/mL: MIC ([2]; strain MMO UFR247, genotype DHA-1)
1024 µg/mL: MIC ([2]; strain MMO UFR242, genotype TEM-52) | MIC ([3]; strain PMI UFR126, compound alone) | MIC ([3]; strain PMI UFR126, genotype TEM-2, PER-1)
<=0.25 μg/mL: MIC ATB in combination ([2]; MMO UFR240, AF2 @ 8 μg/mL) | MIC ATB in combination ([2]; MMO UFR240, AF3 @ 8 μg/mL) | MIC ATB in combination ([2]; MMO UFR242, AF2 @ 8 μg/mL) | MIC ATB in combination ([2]; MMO UFR243, AF3 @ 8 μg/mL) | MIC ATB in combination ([2]; MMO UFR244, AF2 @ 8 μg/mL) | MIC ATB in combination ([2]; MMO UFR244, AF3 @ 8 μg/mL) | MIC ATB in combination ([2]; MMO UFR245, AF3 @ 8 μg/mL) | MIC ATB in combination ([2]; MMO UFR247, AF2 @ 8 μg/mL) | MIC ATB in combination ([2]; MMO UFR247, AF3 @ 8 μg/mL) | MIC ATB in combination ([3]; PMI UFR126, CLA @ 4 μg/mL) | MIC ATB in combination ([3]; PMI UFR127, CLA @ 4 μg/mL) | MIC ATB in combination ([3]; PMI UFR129, CLA @ 4 μg/mL) | MIC ATB in combination ([3]; PMI UFR133, CLA @ 4 μg/mL) | MIC ATB in combination ([3]; PMI UFR237, CLA @ 4 μg/mL) | MIC ([3]; strain PMI UFR133, genotype OXA-23)
2 µg/mL: MIC ATB in combination ([2]; MMO UFR241, AF2 @ 8 μg/mL)
<0.25 µg/mL: MIC ATB in combination ([3]; PMI UFR82, AF2 @ 8 μg/mL) | MIC ATB in combination ([3]; PMI UFR82, AF3 @ 8 μg/mL) | MIC ATB in combination ([3]; PMI UFR126, AF2 @ 8 μg/mL) | MIC ATB in combination ([3]; PMI UFR126, AF3 @ 8 μg/mL) | MIC ATB in combination ([3]; PMI UFR127, AF2 @ 8 μg/mL) | MIC ATB in combination ([3]; PMI UFR127, AF3 @ 8 μg/mL) | MIC ATB in combination ([3]; PMI UFR128, AF2 @ 8 μg/mL) | MIC ATB in combination ([3]; PMI UFR128, AF3 @ 8 μg/mL) | MIC ATB in combination ([3]; PMI UFR129, AF2 @ 8 μg/mL) | MIC ATB in combination ([3]; PMI UFR129, AF3 @ 8 μg/mL) | MIC ATB in combination ([3]; PMI UFR130, AF2 @ 8 μg/mL) | MIC ATB in combination ([3]; PMI UFR130, AF3 @ 8 μg/mL) | MIC ATB in combination ([3]; PMI UFR133, AF2 @ 8 μg/mL) | MIC ATB in combination ([3]; PMI UFR133, AF3 @ 8 μg/mL) | MIC ATB in combination ([3]; PMI UFR237, AF2 @ 8 μg/mL) | MIC ATB in combination ([3]; PMI UFR237, AF3 @ 8 μg/mL) | MIC ATB in combination ([3]; strain PMI UFR131, with AF2 @ 8 μg/mL) | MIC ATB in combination ([3]; strain PMI UFR131, with AF3 @ 8 μg/mL) | MIC ATB in combination ([3]; strain PMI UFR132, with AF2 @ 8 μg/mL) | MIC ATB in combination ([3]; strain PMI UFR132, with AF3 @ 8 μg/mL)
128 µg/mL: MIC ([3]; strain PMI UFR121, genotype TEM-1, TEM-52) | MIC ([3]; strain PMI UFR123, genotype CTX-M-1)
0.5 µg/mL: MIC ATB in combination ([2]; MMO UFR144, AF3 @ 8 μg/mL) | MIC ATB in combination ([2]; MMO UFR241, AF3 @ 8 μg/mL) | MIC ATB in combination ([2]; MMO UFR243, AF2 @ 8 μg/mL) | MIC ATB in combination ([2]; MMO UFR246, AF3 @ 8 μg/mL) | MIC ATB in combination ([3]; PMI UFR128, CLA @ 4 μg/mL) | MIC ([3]; strain PMI UFR120, genotype TEM-1, SHV-11, CTX-M-14) | MIC ([3]; strain PMI UFR125, genotype CTX-M-71)
